The source of these data is US20160272617A1, “SUBSTITUTED PHENYLALANINE DERIVATIVES” (BAYER PHARMA AKTIENGESELLSCHAFT, priority 2013, published 2016).

Where a name gives a salt, the structure may show the parent alone.

For one assay, the target named is T1, human factor XIa (Homo sapiens, UniProt P03951).
T1 construct: purchased Kordia
Put plainly: Measurement of FXIa inhibition (fluorogenic peptide substrate Boc-Glu(OBzl)-Ala-Arg-AMC). The format is biochemical. To be noted: factor XIa from Kordia, 15 min preincubation, 30 min at 22° C., fluorescence. The essentials:
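Released AMC fluorescence (360/460 nm) read after 30 min at 22 °C. The reaction was started with Boc-Glu(OBzl)-Ala-Arg-AMC (10 μM stock) after a 15 min preincubation of the enzyme (0.45 nM stock) with compound (final 50 μM to 0.00013 μM).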

The target in the next assay is T2, human plasmin (Homo sapiens, UniProt P00747).
T2 construct: purchased Kordia
The assay is described as follows: Measurement of plasmin inhibition (fluorogenic peptide substrate MeOSuc-Ala-Phe-Lys-AMC). The format is biochemical. The following applies: plasmin from Kordia, 15 min preincubation, 30 min at 22° C., fluorescence. As to the method: The plasmin inhibition of the inventive substances is determined using a biochemical test system which utilizes the reaction of a peptidic plasmin substrate to determine the enzymatic activity of human plasmin. Here, plasmin cleaves from the peptic plasmin substrate the C-terminal aminomethylcoumarin (AMC), the fluorescence of which is measured. The determinations are carried out in microtitre plates.
Test substances are dissolved in dimethyl sulphoxide and serially diluted in dimethyl sulphoxide (3000 μM to 0.0078 μM; resulting final concentrations in the test: 50 μM to 0.00013 μM). In each case 1 μl of the diluted substance solutions are placed into the wells of white microtitre plates from Greiner (384 wells). Subsequently, the following are added successively: 20 μl of assay buffer (50 mmol/Tris buffer pH 7.4; 100 mmol/l sodium chloride; 5 mmol/calcium chloride; 0.1% bovine serum albumin) and 20 μl of plasmin from Kordia (0.3 μg/ml in assay buffer) are then added successively. After 15 min of incubation, the enzyme reaction is started by addition of 20 μl of the plasmin substrate MeOSuc-Ala-Phe-Lys-AMC dissolved in assay buffer (150 μM in assay buffer) from Bachem, the mixture is incubated at room temperature (22° C.) for 30 min and fluorescence is then measured (excitation: 360 nm, emission: 460 nm). The measured emissions of the test batches with test substance are compared to those of control batches without test substance (only dimethyl sulphoxide instead of test substance in dimethyl sulphoxide), and the IC50 values are calculated from the concentration/activity relationships.

A further assay deals with human and animal plasma. The assay is described as follows: Determination of anticoagulatory activity: activated partial thromboplastin time (aPTT) in plasma. The following applies: concentration of test substance which brings about a 1.5-fold extension of the aPTT; plasma species not given. The gist of the method: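 Citrated plasma (1:9, 0.11 M citrate; 4000 g, 15 min) from human or animal blood incubated with test compound and cephalin/kaolin PTT reagent for 3 min at 37° C.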

T2 sequence (P00747 581-810 limits assumed): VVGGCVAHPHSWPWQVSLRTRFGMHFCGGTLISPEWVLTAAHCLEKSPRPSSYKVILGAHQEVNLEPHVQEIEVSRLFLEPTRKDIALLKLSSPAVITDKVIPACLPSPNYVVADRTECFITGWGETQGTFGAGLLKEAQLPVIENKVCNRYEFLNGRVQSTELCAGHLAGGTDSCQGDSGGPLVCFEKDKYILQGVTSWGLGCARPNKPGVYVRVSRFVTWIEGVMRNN
T2 sequence (P00747 97-580 partner limits assumed): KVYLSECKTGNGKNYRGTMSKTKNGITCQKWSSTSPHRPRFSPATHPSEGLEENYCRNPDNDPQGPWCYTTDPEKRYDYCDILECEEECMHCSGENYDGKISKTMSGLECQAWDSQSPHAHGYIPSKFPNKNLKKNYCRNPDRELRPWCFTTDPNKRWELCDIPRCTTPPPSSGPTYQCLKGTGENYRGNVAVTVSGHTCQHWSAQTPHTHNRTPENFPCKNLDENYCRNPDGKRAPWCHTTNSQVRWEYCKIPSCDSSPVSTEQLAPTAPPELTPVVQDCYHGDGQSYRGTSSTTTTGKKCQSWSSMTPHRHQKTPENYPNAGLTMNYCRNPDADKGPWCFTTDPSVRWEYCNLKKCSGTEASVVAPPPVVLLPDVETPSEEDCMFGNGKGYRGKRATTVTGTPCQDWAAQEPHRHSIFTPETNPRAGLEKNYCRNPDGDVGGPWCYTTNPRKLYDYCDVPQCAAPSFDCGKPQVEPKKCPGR
T1 sequence (P03951 388-625 limits assumed): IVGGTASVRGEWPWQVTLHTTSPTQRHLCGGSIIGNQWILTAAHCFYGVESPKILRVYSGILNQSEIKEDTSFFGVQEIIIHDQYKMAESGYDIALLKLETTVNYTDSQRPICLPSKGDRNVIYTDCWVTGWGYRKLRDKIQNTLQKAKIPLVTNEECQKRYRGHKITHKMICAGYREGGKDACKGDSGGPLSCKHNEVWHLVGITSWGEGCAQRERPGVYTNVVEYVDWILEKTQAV
T1 sequence (P03951 19-387 partner limits assumed): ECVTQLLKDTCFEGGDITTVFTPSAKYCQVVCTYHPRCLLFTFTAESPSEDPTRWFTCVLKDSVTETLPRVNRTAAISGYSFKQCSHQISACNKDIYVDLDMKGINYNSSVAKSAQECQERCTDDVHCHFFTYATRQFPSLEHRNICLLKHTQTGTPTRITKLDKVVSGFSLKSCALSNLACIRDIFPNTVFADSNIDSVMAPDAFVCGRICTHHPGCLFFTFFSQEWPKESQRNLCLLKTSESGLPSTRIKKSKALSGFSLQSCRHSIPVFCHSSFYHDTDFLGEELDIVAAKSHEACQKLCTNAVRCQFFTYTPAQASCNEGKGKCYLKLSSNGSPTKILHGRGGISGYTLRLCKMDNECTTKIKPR

In the case of `Cc1cc(C(=O)NC(C)C)ccc1-c1ccc(CC(NC(=O)[C@H]2CC[C@H](CN)CC2)C(=O)Nc2ccc3cn[nH]c3c2)cc1` (mixture of isomers) [Example 21, 4′-[(2R,S)-2-({[trans-4-(Aminomethyl)cyclohexyl]carbonyl}amino)-3-(1H-indazol-6-ylamino)-3-oxopropyl]-N-isopropyl-2-methylbiphenyl-4-carboxamide hydrochloride (enantiomer mixture)], the figures for the IC50 against human factor XIa and against human plasmin were 1.8 nM and 1.1 nM, respectively.

As to `Cc1cc(C(=O)NC(C)C)ccc1-c1ccc(C[C@@H](NC(=O)C2CCC(CN)CC2)C(=O)Nc2ccc3cn[nH]c3c2)cc1` (single isomer, unassigned; enantiomer 1) [Example 169], the half-inhibitory concentration (IC50) at human factor XIa stood at 2800 nM; against human plasmin it was 270 nM.

For the molecule `Cc1cc(C(=O)NC(C)C)ccc1-c1ccc(C[C@H](NC(=O)C2CCC(CN)CC2)C(=O)Nc2ccc3cn[nH]c3c2)cc1` (single isomer, unassigned; enantiomer 2) [Example 170], the values for the concentration for half-maximal inhibition (IC50) against human factor XIa and at human plasmin were 5.6 nM and 1.3 nM, respectively.

For the molecule `Cc1cc(C(=O)NC(C)C)ccc1-c1ccc(C[C@H](NC(=O)[C@H]2CC[C@H](CN)CC2)C(=O)Nc2ccc(-c3nn[nH]n3)cc2)cc1` [Example 7, 4′-[(2S)-2-({[trans-4-(Aminomethyl)cyclohexyl]carbonyl}amino)-3-oxo-3-{[4-(2H-tetrazol-5-yl)phenyl]amino}propyl]-N-isopropyl-2-methylbiphenyl-4-carboxamide hydrochloride], the IC50 on human factor XIa amounted to 1.7 nM; at human plasmin, 1.9 nM.

Turning to `Cc1cc(C(=O)N2CCCC2)ccc1-c1ccc(C[C@H](NC(=O)[C@H]2CC[C@H](CN)CC2)C(=O)Nc2ccc(-c3nn[nH]n3)cc2)cc1` [Example 20, trans-4-(Aminomethyl)-N-[(2S)-3-[2′-methyl-4′-(pyrrolidin-1-ylcarbonyl)biphenyl-4-yl]-1-oxo-1-{[4-(2H-tetrazol-5-yl)phenyl]amino}propan-2-yl]cyclohexanecarboxamide], the figures for the IC50 against human factor XIa and on human plasmin were 1.8 nM and 5.7 nM, respectively.

As to `Cc1cc(C(=O)NC2CCC2)ccc1-c1ccc(C[C@H](NC(=O)[C@H]2CC[C@H](CN)CC2)C(=O)Nc2cc(Cl)c3oc(=O)[nH]c3c2)cc1` [Example 102, 4′-{(2S)-2-({[trans-4-(Aminomethyl)cyclohexyl]carbonyl}amino)-3-[(7-chloro-2-oxo-2,3-dihydro-1,3-benzoxazol-5-yl)amino]-3-oxopropyl}-N-cyclobutyl-2-methylbiphenyl-4-carboxamide hydrochloride], the results for the 50% inhibitory concentration (IC50) against human factor XIa and against human plasmin were 7.9 nM and 0.74 nM, respectively.

With `COC(=O)C1CCC(NC(=O)c2ccc(-c3ccc(C[C@H](NC(=O)[C@H]4CC[C@H](CN)CC4)C(=O)Nc4ccc(-c5nnn[nH]5)cc4)cc3)c(C)c2)C(=O)N1` (stereo partly drawn) [Example 151, Methyl 5-[({4′-[(2S)-2-({[trans-4-(aminomethyl)cyclohexyl]carbonyl}amino)-3-oxo-3-{[4-(1H-tetrazol-5-yl)phenyl]amino}propyl]-2-methylbiphenyl-4-yl}carbonyl)amino]-6-oxopiperidine-2-carboxylate hydrochloride], inhibition against human factor XIa was half-maximal at 0.97 nM (IC50). For the same molecule, in the assay on human and animal plasma, the “aPTT” value was 0.1 µmol/L.

With `Cc1cc(C(=O)NC2CCNCC2)ccc1-c1ccc(C[C@H](NC(=O)[C@H]2CC[C@H](CN)CC2)C(=O)Nc2ccc(-c3nnc(CCC(=O)O)[nH]3)cc2)cc1` [Example 152, 3-{(5-[4-({(2S)-2-({[trans-4-(Aminomethyl)cyclohexyl]carbonyl}amino)-3-[2′-methyl-4′-(piperidin-4-ylcarbamoyl)biphenyl-4-yl]propanoyl}amino)phenyl]-4H-1,2,4-triazol-3-yl}propanoic acid hydrochloride], at human factor XIa, it took 5.3 nM to reach half-maximal inhibition (IC50). In addition, the “aPTT” value in the assay on human and animal plasma turned out to be 0.7 µmol/L.

As for `Cc1cc(C(=O)N[C@H]2CCNC2)ccc1-c1ccc(C[C@H](NC(=O)[C@H]2CC[C@H](CN)CC2)C(=O)Nc2ccc(-c3nnc(C(F)(F)C(F)(F)C(=O)O)[nH]3)cc2)cc1` [Example 153, 3-[5-(4-{[(2S)-2-({[trans-4-(Aminomethyl)cyclohexyl]carbonyl}amino)-3-{2′-methyl-4′-[(3S)-pyrrolidin-3-ylcarbamoyl]biphenyl-4-yl}propanoyl]amino}phenyl)-4H-1,2,4-triazol-3-yl]-2,2,3,3-tetrafluoropropanoic acid hydrochloride], the IC50 at human factor XIa came to 1.8 nM. Besides, the “aPTT” value in the assay on human and animal plasma amounted to 0.08 µmol/L.

For the molecule `Cc1cc(C(=O)NC2C3CNCC32)ccc1-c1ccc(C[C@H](NC(=O)[C@H]2CC[C@H](CN)CC2)C(=O)Nc2ccc(-c3nnc(C(F)(F)C(F)(F)C(=O)O)[nH]3)cc2)cc1` (stereo partly drawn) [Example 154, 3-(5-[4-({(2S)-2-({[trans-4-(Aminomethyl)cyclohexyl]carbonyl}amino)-3-[4′-(3-azabicyclo[3.1.0]hex-6-ylcarbamoyl)-2′-methylbiphenyl-4-yl]propanoyl}amino)phenyl]-4H-1,2,4-triazol-3-yl}-2,2,3,3-tetrafluoropropanoic acid hydrochloride], on human factor XIa, the midpoint of inhibition, the IC50, lay at 2.8 nM. In addition, the “aPTT” value with human and animal plasma is 0.09 µmol/L.

The molecule `Cc1cc(C(=O)NC2CCCNC2=O)ccc1-c1ccc(C[C@H](NC(=O)[C@H]2CC[C@H](CN)CC2)C(=O)Nc2ccc(-c3nnc(C(F)(F)C(F)(F)C(=O)O)[nH]3)cc2)cc1` (stereo partly drawn) [Example 155, 3-[5-(4-{[(2S)-2-({[trans-4-(Aminomethyl)cyclohexyl]carbonyl}amino)-3-{2′-methyl-4′-[(2-oxopiperidin-3-yl)carbamoyl]biphenyl-4-yl}propanoyl]amino}phenyl)-4H-1,2,4-triazol-3-yl]-2,2,3,3-tetrafluoropropanoic acid hydrochloride] had an IC50 on human factor XIa of 1 nM. In addition, the “aPTT” value in the assay on human and animal plasma is 0.16 µmol/L.

For the molecule `Cc1cc(C(=O)NC(C)C)ccc1-c1ccc(C[C@H](NC(=O)[C@H]2CC[C@H](CN)CC2)C(=O)Nc2cc(Cl)c3oc(=O)[nH]c3c2)cc1` [Example 156, 4′-{(2S)-2-({[trans-4-(Aminomethyl)cyclohexyl]carbonyl}amino)-3-[(7-chloro-2-oxo-2,3-dihydro-1,3-benzoxazol-5-yl)amino]-3-oxopropyl}-N-isopropyl-2-methylbiphenyl-4-carboxamide hydrochloride], the IC50 against human factor XIa came to 7.1 nM; against human plasmin, 0.58 nM.

For the molecule `Cc1cc(C(=O)NC2CCC2)ccc1-c1ccc(C[C@H](NC(=O)[C@H]2CC[C@H](CN)CC2)C(=O)Nc2ccc3cc(C(=O)O)[nH]c3c2)cc1` [Example 160, 6-({(2S)-2-({[trans-4-(Aminomethyl)cyclohexyl]carbonyl}amino)-3-[4′-(cyclobutylcarbamoyl)-2′-methylbiphenyl-4-yl]propanoyl}amino)-1H-indole-2-carboxylic acid hydrochloride], the IC50 against human factor XIa was found to be 5.2 nM; on human plasmin it was 1.3 nM.

Molecule `Cc1cc(C(=O)N[C@@H]2CCCNC2=O)ccc1-c1ccc(C[C@H](NC(=O)[C@H]2CC[C@H](CN)CC2)C(=O)Nc2ccc(-c3nnc(C(F)(F)C(F)(F)C(=O)O)[nH]3)cc2)cc1` [Example 166, 3-[5-(4-{[(2S)-2-({[trans-4-(Aminomethyl)cyclohexyl]carbonyl}amino)-3-(2′-methyl-4′-{[(3R)-2-oxopiperidin-3-yl]carbamoyl}biphenyl-4-yl)propanoyl]amino}phenyl)-4H-1,2,4-triazol-3-yl]-2,2,3,3-tetrafluoropropanoic acid hydrochloride] gave an IC50 at human factor XIa of 0.8 nM. Also, the “aPTT” value in the assay on human and animal plasma was determined as 0.09 µmol/L.

For orientation: IC50 means the concentration needed to halve the response being measured. Higher therefore signals lower potency.
